Source: patent publication US6333320A, “Hexahydro-1,4-diazepine derivatives or salts thereof” (Yamanouchi Pharmaceutical Co., priority 1997, dated 2001)
Structures can show the parent of a compound that is named as a salt.

Target: T1, human activated blood coagulation factor X (Homo sapiens, UniProt P00742)
T1 construct: disulfide-linked light and heavy chains of one precursor) added to human plasma with CaCl2; clotting time CT2
Experiment: measuring the time for blood coagulation with the human activated blood coagulation factor X
Assay type: biochemical
Details: dose of the test compound for 2-time prolongation of the coagulation time; human plasma, 37° C.; read-out: Test for measuring coagulation time with the human activated blood coagulation factor X, CT2
Experimental: 1) Method of measuring the time for blood coagulation with the human activated blood coagulation factor X:
The human activated blood coagulation factor X (Cosmo-Bio Co.) was dissolved in 0.05 M tris-HCl buffer (pH=7.40) to prepare its solution of 0.05 units/ml. Blood was collected in 3.8% sodium citrate to be 1/10 by volume, and centrifuged at 3,000 rpm for 10 minutes to separate human plasma therefrom. 90 μl of the thus-prepared human plasma, 10 μl of a test compound as diluted with physiological saline, and 50 μl of the solution of the activated blood coagulation factor X were kept warmed at 37° C. for 3 minutes, to which was added 100 μl of a solution of 20 mM CaCl2, and the time for blood coagulation in the system was measured.
To measure the coagulation time, used was Amelung's KC4A. The dose of the test compound for 2-time prolongation of the coagulation time (hereinafterreferred to as CT2) was calculated on the basis of the coagulation time for the control to which was added 10 μl of physiological saline with no test compound.

T1 sequence (P00742 41-179): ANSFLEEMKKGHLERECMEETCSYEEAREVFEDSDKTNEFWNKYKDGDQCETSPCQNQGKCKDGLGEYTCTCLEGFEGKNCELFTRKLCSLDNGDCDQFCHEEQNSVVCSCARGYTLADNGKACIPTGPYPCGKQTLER
T1 sequence (P00742 235-488): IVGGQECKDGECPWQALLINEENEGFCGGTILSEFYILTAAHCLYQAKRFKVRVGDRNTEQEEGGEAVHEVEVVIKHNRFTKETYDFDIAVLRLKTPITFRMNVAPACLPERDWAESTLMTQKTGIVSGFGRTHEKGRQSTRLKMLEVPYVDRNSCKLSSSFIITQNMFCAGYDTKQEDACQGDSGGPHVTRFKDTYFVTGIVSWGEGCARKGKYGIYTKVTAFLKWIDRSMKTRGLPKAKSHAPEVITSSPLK

| SMILES | EC (2-fold clotting time) [µM] |
| --- | --- |
| CC(=N)N1CCCN(c2ccc(N(Cc3ccc4ccc(C(=N)N)cc4c3)C(=S)NCC(=O)O)cc2)CC1 [Example 75, N-[4-(4-Acetimidoylhexahydro-1H-1,4-diazepin-1-yl)phenyl]-N-[(7-amidino-2-naphthyl)methyl]thioamido-acetic acid] | 0.095 |
| CCOC(=O)CC(=O)N(Cc1ccc2ccc(C(=N)N)cc2c1)c1ccc(N2CCCN(C(C)=N)CC2)nc1 [Example 72] | 0.119 |
| CC(=N)N1CCCN(c2ccc(N(Cc3ccc4ccc(C(=N)N)cc4c3)S(=O)(=O)CC(=O)O)cn2)CC1 [Example 32, [N-[6-(4-Acetimidoylhexahydro-1H-1,4-diazepin-1-yl)-3-pyridyl]-N-[(7-amidino-2-naphthyl)methyl]sulfamoyl]acetic acid] | 0.089 |
| CCOC(=O)CC(=O)N(Cc1ccc2ccc(C(=N)N)cc2c1)c1ccc(N2CCCN(C(C)=N)CC2)cc1 [Example 24, Ethyl N-[4-(4-acetimidoylhexahydro-1H-1,4-diazepin-1-yl)phenyl]-N-[(7-amidino-2-naphthyl)methyl]malonamate] | 0.152 |
| CCOC(=O)CCC(=O)N(Cc1ccc2ccc(C(=N)N)cc2c1)c1ccc(N2CCCN(C(C)=N)CC2)nc1 [Example 73] | 0.224 |
| CC(=N)N1CCCN(c2ccc(N(Cc3ccc4ccc(C(=N)N)cc4c3)C(C)=O)cc2)CC1 [Example 17] | 0.092 |
| CC(=N)N1CCCN(c2ccc(N(Cc3ccc4ccc(C(=N)N)cc4c3)S(=O)(=O)CC(=O)O)cc2)CC1 [Example 33, [N-[4-(4-acet-imidoylhexahydro-1H-1,4-diazepin-1-yl)phenyl]-N-[(7-amidino-2-naphthyl)methyl]sulfamoyl]acetic acid dihydro-chloride] | 0.098 |
| CC(=N)N1CCCN(c2ccc(N(Cc3ccc4ccc(C(=N)N)cc4c3)C(=O)CCC(=O)O)cn2)CC1 [Example 84] | 0.134 |
| CCOC(=O)CS(=O)(=O)N(Cc1ccc2ccc(C(=N)N)cc2c1)c1ccc(N2CCCN(C(C)=N)CC2)cc1 [Example 22, ethyl [N-[4-(4-acetimidoylhexahydro-1H-1,4-diazepin-1-yl)phenyl]-N-[(7-amidino-2-naphthyl)methyl]-sulfamoyl]acetate dihydrochloride] | 0.111 |
| CCOC(=O)CNS(=O)(=O)N(Cc1ccc2ccc(C(=N)N)cc2c1)c1ccc(N2CCCN(C(C)=N)CC2)cc1 [Example 23, Ethyl N-[N-[4-(4-acetimidoylhexahydro-1H-1,4-diazepin-1-yl)phenyl]-N-[(7-amidino-2-naphthyl)methyl]-sulfamoyl]glycinate] | 0.11 |
| CC(=N)N1CCCN(c2ccc(N(Cc3ccc4ccc(C(=N)N)cc4c3)C(=O)CCC(=O)O)cc2)CC1 [Example 36, N-[4-(4-Acetimidoylhexahydro-1H-1,4-diazepin-1-yl)phenyl]-N-[(7-amidino-2-naphthyl)methyl] succinamic acid] | 0.069 |
